Measurements published in PubChem BioAssay (NCI).
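Five concentrations, 48 hours, 96-well plates. The concentration for 50% growth inhibition is given as GI50. TGI denotes the concentration required for complete inhibition of growth.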

Experiments:
Test in all cases: NCI tumour cell line growth inhibition, 48 h
A498 renal = test system: A498 renal
ACHN renal = test system: ACHN renal
LOX IMVI melanoma = test system: LOX IMVI melanoma
NCI-H460 lung = test system: NCI-H460 lung
SF-295 CNS = test system: SF-295 CNS
SNB-75 CNS = test system: SNB-75 CNS
UACC-62 melanoma = test system: UACC-62 melanoma
SK-MEL-5 melanoma = test system: SK-MEL-5 melanoma
MDA-MB-231 breast = test system: MDA-MB-231 breast
PC-3 prostate = test system: PC-3 prostate

| SMILES | TGI (A498 renal) | TGI (ACHN renal) | TGI (LOX IMVI melanoma) | TGI (NCI-H460 lung) | TGI (SF-295 CNS) | TGI (SNB-75 CNS) | TGI (UACC-62 melanoma) | TGI (SK-MEL-5 melanoma) | GI50 (A498 renal) | GI50 (ACHN renal) | GI50 (LOX IMVI melanoma) | GI50 (MDA-MB-231 breast) | TGI (MDA-MB-231 breast) | GI50 (NCI-H460 lung) | GI50 (PC-3 prostate) | TGI (PC-3 prostate) | GI50 (SF-295 CNS) | GI50 (SK-MEL-5 melanoma) | GI50 (SNB-75 CNS) | GI50 (UACC-62 melanoma) |
| --- | --- | --- | --- | --- | --- | --- | --- | --- | --- | --- | --- | --- | --- | --- | --- | --- | --- | --- | --- | --- |
| CN(C)/C(N)=N/C(N)=S | > 100 µM | > 100 µM | > 100 µM | > 100 µM | > 100 µM | > 100 µM | > 100 µM | – | – | – | – | – | – | – | – | – | – | – | – | – |
| CCOC(=O)/C=C/c1ccccn1 | > 100 µM | > 100 µM | > 100 µM | > 100 µM | > 100 µM | > 100 µM | > 100 µM | > 100 µM | – | – | – | – | – | – | – | – | – | – | – | – |
| O=C(CN1CCN(c2ccc(Cl)cc2)CC1)N1CCN(c2nnc(-c3ccccc3)c(-c3ccccc3)n2)CC1 | > 100 µM | > 100 µM | > 100 µM | > 100 µM | > 100 µM | > 100 µM | – | 8.31 µM | > 100 µM | 5.07 µM | 7.26 µM | > 100 µM | > 100 µM | 4.97 µM | 3.1 µM | > 100 µM | 4.88 µM | 2.11 µM | 7.56 µM | – |
| O=C1C(Cl)=C(Nc2cccc(O)c2)C(=O)N1c1cccc(Cl)c1Cl | – | > 100 µM | 28.5 µM | 51.5 µM | 25.2 µM | – | 34 µM | 21.7 µM | – | 19.1 µM | 12.5 µM | 12.3 µM | 34.2 µM | 14.8 µM | 6.92 µM | 28.6 µM | 3.28 µM | 7.01 µM | – | 14.6 µM |
| COc1ccc(C#CCC(OC2OC(CO)C(O)C(O)C2O)C(O)c2ccc(OC)c(OC)c2)cc1OC (stereo not drawn) | > 100 µM | > 100 µM | 59.1 µM | > 100 µM | > 100 µM | > 100 µM | > 100 µM | > 100 µM | – | – | – | – | – | – | – | – | – | – | – | – |
| CC1=C(C(=O)Nc2ccccc2C)C(c2ccc(C3C(C(=O)Nc4ccccc4C)=CNC=C3C(=O)Nc3ccccc3C)cc2)C(C(=O)Nc2ccccc2C)=C(C)N1 | 41.7 µM | 30.6 µM | 21.7 µM | 48 µM | 37.7 µM | 54.8 µM | 31.9 µM | 17.8 µM | – | – | – | – | – | – | – | – | – | – | – | – |
| CCN1CCN(C(=O)[C@]23CCC(C)(C)C[C@@H]2C2=CC[C@@H]4[C@@]5(C)C/C(=C/c6cccnc6)C(=O)C(C)(C)[C@@H]5CC[C@@]4(C)[C@]2(C)CC3)CC1 | 3.53 µM | 10.5 µM | 2.73 µM | 2.93 µM | 3.15 µM | – | 2.83 µM | 3 µM | 1.66 µM | 2.6 µM | 1.36 µM | 1.4 µM | 2.84 µM | 1.39 µM | 1 µM | 2.79 µM | 1.66 µM | 1.63 µM | – | 1.28 µM |
| Cc1cc2c(cc1C)[n+](=O)c(C(=O)/C=C/c1ccccc1Cl)c(C)n2[O-] | 96.7 µM | 58.1 µM | > 100 µM | 63.7 µM | > 100 µM | 47.5 µM | 35.1 µM | 59.6 µM | – | – | – | – | – | – | – | – | – | – | – | – |
| CC(C)CC(=O)NS(=O)(=O)c1ccccc1 | > 100 µM | > 100 µM | > 100 µM | > 100 µM | > 100 µM | > 100 µM | > 100 µM | – | – | – | – | – | – | – | – | – | – | – | – | – |
